Experimental data published in patent US20040171566A1, “Antisense modulation of p38 mitogen activated protein kinase expression” (priority 1999, published 2004).
In the oligonucleotide strings, read from the 5' end, every base follows the letter of its sugar. An asterisk marks phosphorothioate; unmarked linkages are phosphodiester. Other units and linkages are bracketed, terminal groups are in braces. A string of capitals states the bases alone. e = 2'-O-(2-methoxyethyl) (MOE); [5mC] = 5-methylcytosine; d = 2'-deoxy (DNA)

Experiments:
human p38β mRNA [1] = assay: Human p38β mRNA expression in T-24 cells
human p38α mRNA = assay: Human p38α mRNA expression in T-24 cells; details: initial screen of human p38β oligonucleotides
human p38β mRNA [2] = assay: Inhibition of human p38β mRNA expression in HUVEC cells, Northern blot; type: cell-based
Method: The human Jurkat T-cell line (American Type Culture Collection, Manassas, Va.) was maintained in RPMI 1640 growth media supplemented with 10% fetal bovine serum (FBS; Hyclone, Logan, Utah). HUVEC cells (Clonetics, San Diego, Calif.) were cultivated in endothelial basal media supplemented with 10% FBS (Hyclone, Logan, Utah).
HUVEC cells were allowed to reach 75% confluency prior to use. The cells were washed twice with warm (37° C.) OPTI-MEM™ (Life Technologies). The cells were incubated in the presence of the appropriate culture medium, without the growth factors added, and the oligonucleotide formulated in LIPOFECTIN7 (Life Technologies), a 1:1 (w/w) liposome formulation of the cationic lipid N-[1-(2,3-dioleyloxy)propyl]-n,n,n-trimethylammonium chloride (DOTMA), and dioleoyl phosphotidylethanolamine (DOPE) in membrane filtered water. HUVEC cells were treated with 100 nM oligonucleotide in 10 μg/ml LIPOFECTIN7. Treatment was for four hours.
Total mRNA was isolated using the RNEASY7 Mini Kit (Qiagen, Valencia, Calif.; similar kits from other manufacturers may also be used), separated on a 1% agarose gel, transferred to HYBOND™-N+ membrane (Amersham Pharmacia Biotech, Piscataway, N.J.), a positively charged nylon membrane, and probed. p38 MAPK probes were made using the Prime-A-Gene7 kit (Promega Corporation, Madison, Wis.), a random primer labeling kit, using mouse p38α or p38β cDNA as a template. A glyceraldehyde 3-phosphate dehydrogenase (G3PDH) probe was purchased from Clontech (Palo Alto, Calif.), Catalog Number 9805-1. The fragments were purified from low-melting temperature agarose, as described in Maniatis, T., et al., Molecular Cloning: A Laboratory Manual, 1989. The G3PDH probe was labeled with REDIVUE™ ^32P-dCTP (Amersham Pharmacia Biotech, Piscataway, N.J.) and Strip-EZ labelling kit (Ambion, Austin, Tex.). mRNA was quantitated by a PhosphoImager (Molecular Dynamics, Sunnyvale, Calif.).
Every oligonucleotide tested gave at least 50% inhibition.
Oligonucleotides 17893 (SEQ ID NO. 27), 17899 (SEQ ID NO:33), 17904 (SEQ ID NO. 38), and 17907 (SEQ ID NO. 41) were chosen for dose response studies. HUVEC cells were cultured and treated as described in Example 2 except that the oligonucleotide concentration was varied as shown in Table 6. The Lipofectin7/Oligo ratio was maintained at 3 μg Lipofectin7/100 nM oligo, per ml. mRNA was measured by Northern blot as described in Example 2.

mouse p38α mRNA = assay: Inhibition of mouse p38α mRNA expression in bEND.3 cells, Northern blot; type: cell-based; details: mouse p38β antisense oligonucleotides, screened as in Example 4
Method: (§1) bEND.3, a mouse endothelial cell line (gift of Dr. Werner Risau; see Montesano et al., Cell, 1990, 62, 435, and Stepkowski et al., J. Immunol., 1994, 153, 5336) were grown in high-glucose DMEM (Life Technologies, Gaithersburg, Md.) medium containing 10% fetal bovine serum (FBS) and 1% Penicillin/Streptomycinin. Cells were plated at approximately 2×10^5 cells per 100 mm dish. Within 48 hours of plating, the cells were washed with phosphate-buffered saline (Life Technologies). Then, Opti-MEM7 medium containing 3 μg/mL LIPOFECTIN^7 and an appropriate amount of oligonucleotide were added to the cells. As a control, cells were treated with LIPOFECTIN^7 without oligonucleotide under the same conditions and for the same times as the oligonucleotide-treated samples.
(§2) After 4 hours at 37° C., the medium was replaced with high glucose DMEM medium containing 10% FBS and 1% Penicillin/Streptomycinin. The cells were typically allowed to recover overnight (about 18 to 24 hours) before RNA and/or protein assays were performed as described in Example 2. The p38α, p38β and G3PDH probes used were identical to those described in Example 2.
(§3) Rat p38α antisense oligonucleotides were screened in bEND.3 cells for inhibition of p38α and p38β mRNA expression. The concentration of oligonucleotide used was 100 nM. Oligonucleotides 21844 (SEQ ID NO. 47), 21845 (SEQ ID NO. 48), 21872 (SEQ ID NO. 51), 21873 (SEQ ID NO. 52), 21875 (SEQ ID NO. 54), and 21876 (SEQ ID NO.
(§4) Mouse p38β antisense sequences were screened in bEND.3 cells as described in Example 4.

mouse p38β mRNA = assay: Inhibition of mouse p38β mRNA expression in bEND.3 cells, Northern blot; type: cell-based; details: mouse p38β antisense oligonucleotides, screened as in Example 4
Method: as §1, §2, §3, §4

[3] = dose 50 nM, relative to control oligonucleotide = 100%
[4] = dose 100 nM, relative to control oligonucleotide = 100%
[5] = dose 200 nM, relative to control oligonucleotide = 100%
[6] = initial screen of human p38β oligonucleotides
[7] = 100 nM oligonucleotide in 10 μg/ml LIPOFECTIN, four hours, Northern blot

In the case of “ATCCTGAGCTCACAGTCCTC (chimeric, phosphorothioate, further chemistry not given here) [ISIS 17899]”, the “% p38β mRNA Expression” value (human p38β mRNA [1]; [3]) is reported as 89%, the “% p38β mRNA Expression” value (human p38β mRNA [1]; [4]) is reported as 36% and the “% p38β mRNA Expression” value (human p38β mRNA [1]; [5]) is reported as 15%. The “% p38β mRNA Expression” value (human p38β mRNA [1]; [6]) was 56%, the “% p38α mRNA EXPRESSION” value (human p38α mRNA) was 117% and the “% mRNA EXPRESSION” value (human p38β mRNA [2]; [7]) was 5%. For the same substance, the “% mRNA Inhibition” value (human p38β mRNA [2]; [7]) was 95%, the “% mRNA EXPRESSION” value (human p38β mRNA [2]; dose 10 nM) was 37% and the “% mRNA Inhibition” value (human p38β mRNA [2]; dose 10 nM) was 63%. For the same substance, the “% mRNA EXPRESSION” value (human p38β mRNA [2]; dose 25 nM) was 23%, the “% mRNA Inhibition” value (human p38β mRNA [2]; dose 25 nM) was 77% and the “% mRNA EXPRESSION” value (human p38β mRNA [2]; dose 50 nM) was 18%. The “% mRNA Inhibition” value (human p38β mRNA [2]; dose 50 nM) was 82%, the “% mRNA EXPRESSION” value (human p38β mRNA [2]; dose 100 nM) was 21% and the “% mRNA Inhibition” value (human p38β mRNA [2]; dose 100 nM) was 79%.

“AoCoAoToTsGsCsTsGsGsGsCsTsTsCsAoGoGoToC (antisense eAe[5mC]eAeTeT*dG*d[5mC]*dT*dG*dG*dG*d[5mC]*dT*dT*d[5mC]*eAeGeGeTe[5mC]) [ISIS 100808]” was tested, and the “% p38α mRNA INHIBITION” value (mouse p38α mRNA) was 13%.

“AoToCoCoTsCsAsGsCsTsCsGsCsAsGsToCoCoToC (antisense eAeTe[5mC]e[5mC]eT*d[5mC]*dA*dG*d[5mC]*dT*d[5mC]*dG*d[5mC]*dA*dG*eTe[5mC]e[5mC]eTe[5mC]) [ISIS 100809]” was tested, and the “% p38α mRNA INHIBITION” value (mouse p38α mRNA) was 14%.

“AoToGoGoAsTsGsTsGsGsCsCsGsGsCsGoToGoAoA (antisense eAeTeGeGeA*dT*dG*dT*dG*dG*d[5mC]*d[5mC]*dG*dG*d[5mC]*eGeTeGeAeA) [ISIS 100806]” was tested, and the “% p38α mRNA INHIBITION” value (mouse p38α mRNA) was 3% and the “% p38β mRNA Inhibition” value (mouse p38β mRNA) was 22%.

With “CoAoGoGoCsCsAsCsAsGsAsCsCsAsGsAoToGoToC (antisense e[5mC]eAeGeGe[5mC]*d[5mC]*dA*d[5mC]*dA*dG*dA*d[5mC]*d[5mC]*dA*dG*eAeTeGeTe[5mC]) [ISIS 100812]” the “% p38α mRNA INHIBITION” value (mouse p38α mRNA) was 17% and the “% p38β mRNA Inhibition” value (mouse p38β mRNA) was 36%.

“CoCoCoToGsCsAsGsCsCsGsCsTsGsCsGoGoCoAoC (antisense e[5mC]e[5mC]e[5mC]eTeG*d[5mC]*dA*dG*d[5mC]*d[5mC]*dG*d[5mC]*dT*dG*d[5mC]*eGeGe[5mC]eAe[5mC]) [ISIS 100802]” was tested, and the “% p38β mRNA Expression” value (human p38β mRNA [1]; [6]) was 47%, the “% p38β mRNA Inhibition” value (mouse p38β mRNA) was 35% and the “% p38α mRNA EXPRESSION” value (human p38α mRNA) was 78%.

For “GTACGTTCTGCGCGCGTGGA (antisense eGeTeAe[5mC]eG*dT*dT*d[5mC]*dT*dG*d[5mC]*dG*d[5mC]*dG*d[5mC]*eGeTeGeGeA) [ISIS 107871]”, the “% p38β mRNA Expression” value (human p38β mRNA [1]; [3]) was 41%, the “% p38β mRNA Expression” value (human p38β mRNA [1]; [4]) was 42% and the “% p38β mRNA Expression” value (human p38β mRNA [1]; [5]) was 10%. The “% p38β mRNA Expression” value (human p38β mRNA [1]; [6]) was 60% and the “% p38α mRNA EXPRESSION” value (human p38α mRNA) was 111%.

With “GoCoAoGoAsCsTsGsAsGsCsCsGsTsAsGoGoCoGoC (antisense eGe[5mC]eAeGeA*d[5mC]*dT*dG*dA*dG*d[5mC]*d[5mC]*dG*dT*dA*eGeGe[5mC]eGe[5mC]) [ISIS 100803]” the “% p38α mRNA INHIBITION” value (mouse p38α mRNA) was 18%.
